Values after ≈ are worked out from the molar mass of the structure shown. Active and inactive are the calls of the source. The rule behind the calls is not given here.
Experiments:
Staphylococcus aureus [1] = assay: Antimicrobial activity against Staphylococcus aureus ATCC 25923 assessed as inhibition of bacterial growth incubated for 18 hrs by serial dilution method; assay type: functional
Pseudomonas aeruginosa [2] = assay: Antimicrobial activity against Pseudomonas aeruginosa ATCC 27853 assessed as inhibition of bacterial growth incubated for 18 hrs by serial dilution method; assay type: functional
Mus musculus [3] = species: Mus musculus; assay: Wound healing activity in Kunming mouse full-thickness excisional wound model assessed as increase in wound closure at 1 10^-7M, TOP BID and measured upto 8 days by image analysis; assay type: functional, organism-based; settings: time <= 8.0 day
NIH3T3 [4] = assay: Induction of cell migration in mouse NIH3T3 cells assessed as […] at 0.1 to 1000 nM incubated for 48 hrs by phase-contrast microscopy based scratch wound healing assay; assay type: functional; settings: dose 0.1-1000 nM
RAW264.7 [5] = assay: Cytotoxicity against mouse RAW264.7 cells assessed as reduction in cell viability at 1 to 16 uM incubated for 24 hrs by MTT assay; assay type: toxicity, cell-based; settings: raw264.7, 24 h, dose 1-16 µM
Staphylococcus aureus [6] = assay: Antimicrobial activity against Staphylococcus aureus ATCC 29213 assessed as inhibition of bacterial growth incubated for 18 hrs by serial dilution method; assay type: functional
Escherichia coli [7] = assay: Antimicrobial activity against Escherichia coli ML-35 assessed as inhibition of bacterial growth incubated for 18 hrs by serial dilution method; assay type: functional
HEK293 [8] = assay: Induction of cell proliferation in human HEK293 cells expressing NK1R assessed as increase in cell viability at 0.1 to 1000 nM incubated for 48 hrs by MTT assay; assay type: functional, cell-based; settings: dose 0.1-1000 nM
Pseudomonas aeruginosa [9] = assay: Antimicrobial activity against Pseudomonas aeruginosa PAO1 assessed as inhibition of bacterial growth incubated for 18 hrs by serial dilution method; assay type: functional
NIH3T3 [10] = assay: Induction of cell proliferation in mouse NIH3T3 cells assessed as increase in cell viability at 0.1 to 1000 nM incubated for 48 hrs by MTT assay; assay type: functional, cell-based; settings: dose 0.1-1000 nM
Escherichia coli [11] = assay: Antimicrobial activity against Escherichia coli ATCC 25922 assessed as inhibition of bacterial growth incubated for 18 hrs by serial dilution method; assay type: functional
[12] = Hemolytic activity in mouse erythrocytes assessed as haemoglobin release at 400 uM incubated for 1 hrs by microplate reader method; assay type: toxicity, cell-based, Erythrocyte; settings: read-out: Activity
HEK293 [13] = assay: Induction of cell proliferation in human HEK293 cells assessed as increase in cell viability at 0.1 to 1000 nM incubated for 48 hrs by MTT assay; assay type: functional, cell-based; settings: dose 0.1-1000 nM
RAW264.7 [14] = assay: Anti-inflammatory activity in LPS-stimulated mouse RAW264.7 cells assessed as inhibition of NO production at 16 uM incubated for 24 hrs by Griess reagent based assay; assay type: functional, cell-based
Bacillus subtilis = assay: Antimicrobial activity against Bacillus subtilis ATCC 23857 assessed as inhibition of bacterial growth incubated for 18 hrs by serial dilution method; assay type: functional
Staphylococcus aureus [15] = assay: Bactericidal activity against Staphylococcus aureus ATCC 25923 assessed as reduction in colony forming unit at 2 times MIC and measured after 120 mins by time-kill kinetics assay; assay type: functional, organism-based
Mus musculus [16] = species: Mus musculus; assay: Wound healing activity in Staphylococcus aureus ATCC 25923 infected Kunming mouse excisional wound model assessed as increase in wound repair at 1 10^-4M, TOP BID and measured upto 8 days by image analysis; assay type: functional, organism-based; settings: time <= 8.0 day
Mus musculus [17] = species: Mus musculus; assay: Antimicrobial activity in Staphylococcus aureus ATCC 25923 infected Kunming mouse excisional wound model assessed as decrease in bacterial growth at 1 10^-4M, TOP BID and measured upto 8 days by image analysis; assay type: functional, organism-based; settings: time <= 8.0 day
Mus musculus [18] = species: Mus musculus; assay: Wound healing activity in Kunming mouse full-thickness excisional wound model with splints assessed as increase in wound healing rate at 1 10^-7M, TOP BID and measured upto 8 days by image analysis; assay type: functional, organism-based; settings: time <= 8.0 day
RAW264.7 [19] = assay: Anti-inflammatory activity against LPS-stimulated mouse RAW264.7 cells assessed as reduction in IL-1beta mRNA expression level at 1 to 16 uM incubated for 4 hrs by RT-qPCR analysis; assay type: functional, cell-based; settings: dose 1-16 µM
RAW264.7 [20] = assay: Anti-inflammatory activity against LPS-stimulated mouse RAW264.7 cells assessed as reduction in IL-6 mRNA expression level at 1 to 16 uM incubated for 4 hrs by RT-qPCR analysis; assay type: functional, cell-based; settings: dose 1-16 µM
Lipopolysaccharide (LPS) = assay: Binding affinity to Escherichia coli O111:B4 LPS assessed as dissociation constant by ITC assay
RAW264.7 [21] = assay: Anti-inflammatory activity against LPS-stimulated mouse RAW264.7 cells assessed as reduction in TNF-alpha mRNA expression level at 1 to 16 uM incubated for 4 hrs by RT-qPCR analysis; assay type: functional, cell-based; settings: dose 1-16 µM
[22] = Cytotoxicity against mouse RAW264.7 cells assessed as cell survival rate at 16 uM incubated for 24 hrs by MTT assay; assay type: toxicity, cell-based; settings: read-out: Survival

Molecule | MIC (Staphylococcus aureus [1]) | MIC (Pseudomonas aeruginosa [2]) | Activity (Mus musculus [3]) | Activity (NIH3T3 [4]) | MIC (Staphylococcus aureus [6]) | MIC (Escherichia coli [7]) | Activity (HEK293 [8]) | MIC (Pseudomonas aeruginosa [9]) | Activity (NIH3T3 [10]) | MIC (Escherichia coli [11]) | hemolysis at 1 h, 400 µM [12] | Activity (HEK293 [13]) | inhibition (RAW264.7 [14]) | MIC (Bacillus subtilis) | also measured
CSCC[C@H](NC(=O)[C@H](CC(C)C)NC(=O)CNC(=O)[C@H](Cc1ccccc1)NC(=O)[C@H](Cc1ccccc1)NC(=O)[C@H](CCC(N)=O)NC(=O)[C@H](CO)NC(=O)[C@H](C)NC(=O)[C@H](CCCCN)NC(=O)CNC(=O)[C@@H](N)[C@H](C)O)C(N)=O | > 128 µM | > 128 µM | Active | Active | > 128 µM | > 128 µM | Active | > 128 µM | Active | > 128 µM | 5.05% | inactive | inactive | > 128 µM | Activity (RAW264.7 [5]): Non-Toxic
CC1(C)S[C@@H]2[C@H](NC(=O)[C@H](N)c3ccc(O)cc3)C(=O)N2[C@H]1C(=O)O [AMOXICILLIN] | < 1 µM | > 128 µM |  |  | 2 µM (≈ 0.731 µg/mL) | 16 µM (≈ 5.85 µg/mL) |  | > 128 µM |  | 4 µM (≈ 1.46 µg/mL) |  |  |  | 8 µM (≈ 2.92 µg/mL) | 
CN[C@H](CC(C)C)C(=O)N[C@H]1C(=O)N[C@@H](CC(N)=O)C(=O)N[C@H]2C(=O)N[C@H]3C(=O)N[C@H](C(=O)N[C@H](C(=O)O)c4cc(O)cc(O)c4-c4cc3ccc4O)[C@H](O)c3ccc(c(Cl)c3)Oc3cc2cc(c3O[C@@H]2O[C@H](CO)[C@@H](O)[C@H](O)[C@H]2O[C@H]2C[C@](C)(N)[C@H](O)[C@H](C)O2)Oc2ccc(cc2Cl)[C@H]1O [VANCOMYCIN] | < 1 µM | > 128 µM |  |  | < 1 µM | 64 µM (≈ 92.8 µg/mL) |  | > 128 µM |  | 64 µM (≈ 92.8 µg/mL) |  |  |  | < 1 µM | Activity (Staphylococcus aureus [15]): inactive; Activity (Mus musculus [16]): Active; Activity (Mus musculus [17]): Active
H-LKKWLKKWTGKASQFFGLM-NH2 | 4 µM | 4 µM | Active | Active | 8 µM | 2 µM | Active | 4 µM | Active | 2 µM | 7.88% | inactive | Active | 2 µM | Activity (Mus musculus [18]): Active; Activity (RAW264.7 [19]): Dose-Dependent Effect; Activity (RAW264.7 [20]): Dose-Dependent Effect; Kd (Lipopolysaccharide (LPS)): 25 µM; Activity (RAW264.7 [21]): Dose-Dependent Effect; viability at 24 h, 16 µM [22]: > 90%
